Laboratory results reported in ChEMBL document CHEMBL5241128, “Synthesis of 1-O-acyl- and 1-oxo-kamebanin analogues and their cytotoxic activity” (Bioorg Med Chem Lett, 2023).

Assays:
[1] = system: HL-60; experiment: Cytotoxicity against human HL-60 cells assessed as inhibition of cell growth; format: functional, cell-based
[2] = system: HCT-116; experiment: Cytotoxicity against human HCT-116 cells assessed as inhibition of cell growth; format: functional, cell-based

C=C1C(=O)[C@@]23[C@@H]4OC(C)(C)O[C@@H]2C[C@@H]2C(C)(C)CC[C@H](OC(=O)CC)[C@@]2(C)[C@@H]3CC[C@@H]14
IC50 [1]: 5.7 µM
IC50 [2]: 6.9 µM

C=C1C(=O)[C@@]23[C@H](O)C[C@@H]4C(C)(C)CCC(=O)[C@@]4(C)[C@@H]2CC[C@@H]1[C@H]3O
IC50 [1]: 2.2 µM
IC50 [2]: 11 µM

C=C1C(=O)[C@@]23[C@@H]4OC(C)(C)O[C@@H]2C[C@@H]2C(C)(C)CC[C@H](OC(=O)CCCCC)[C@@]2(C)[C@@H]3CC[C@@H]14
IC50 [1]: 6.9 µM
IC50 [2]: 6.8 µM

C=C1C(=O)[C@@]23[C@H](O)C[C@@H]4C(C)(C)CC[C@H](OC(=O)CCCC)[C@@]4(C)[C@@H]2CC[C@@H]1[C@H]3O
IC50 [1]: 2 µM
IC50 [2]: 4.2 µM

C=C1C(=O)[C@@]23[C@@H]4OC(C)(C)O[C@@H]2C[C@@H]2C(C)(C)CC[C@H](OC(C)=O)[C@@]2(C)[C@@H]3CC[C@@H]14
IC50 [1]: 57 µM
IC50 [2]: 43 µM

C=C1C(=O)[C@@]23[C@@H]4OC(C)(C)O[C@@H]2C[C@@H]2C(C)(C)CC[C@H](O)[C@@]2(C)[C@@H]3CC[C@@H]14
IC50 [1]: 7.3 µM
IC50 [2]: 7.6 µM

C=C1C(=O)[C@@]23[C@H](O)C[C@@H]4C(C)(C)CC[C@H](OC(=O)C(C)(C)C)[C@@]4(C)[C@@H]2CC[C@@H]1[C@H]3O
IC50 [1]: 2.8 µM
IC50 [2]: 4.3 µM

C=C1C(=O)[C@@]23[C@@H]4OC(C)(C)O[C@@H]2C[C@@H]2C(C)(C)CC[C@H](OC(=O)C(C)(C)C)[C@@]2(C)[C@@H]3CC[C@@H]14
IC50 [1]: 14 µM
IC50 [2]: 35 µM

C=C1C(=O)[C@@]23[C@@H]4OC(C)(C)O[C@@H]2C[C@@H]2C(C)(C)CC[C@H](OC(=O)CCCC)[C@@]2(C)[C@@H]3CC[C@@H]14
IC50 [1]: 7.7 µM
IC50 [2]: 10 µM

C=C1C(=O)[C@@]23[C@@H]4OC(C)(C)O[C@@H]2C[C@@H]2C(C)(C)CCC(=O)[C@@]2(C)[C@@H]3CC[C@@H]14
IC50 [1]: 36 µM
IC50 [2]: 77 µM

C=C1C(=O)[C@@]23[C@@H]4OC(C)(C)O[C@@H]2C[C@@H]2C(C)(C)CC[C@H](OC(=O)CCC)[C@@]2(C)[C@@H]3CC[C@@H]14
IC50 [1]: 7.2 µM
IC50 [2]: 3.9 µM

C=C1C(=O)[C@@]23[C@H](O)C[C@@H]4C(C)(C)CC[C@H](OC(=O)CCC)[C@@]4(C)[C@@H]2CC[C@@H]1[C@H]3O
IC50 [1]: 6.1 µM
IC50 [2]: 4.2 µM

C=C1C(=O)[C@@]23[C@H](O)C[C@@H]4C(C)(C)CC[C@H](OC(C)=O)[C@@]4(C)[C@@H]2CC[C@@H]1[C@H]3O
IC50 [1]: 5.7 µM
IC50 [2]: 13 µM

C=C1C(=O)[C@@]23[C@H](O)C[C@@H]4C(C)(C)CC[C@H](OC(=O)CC)[C@@]4(C)[C@@H]2CC[C@@H]1[C@H]3O
IC50 [1]: 5.9 µM
IC50 [2]: 9.7 µM

C=C1C(=O)[C@@]23[C@H](O)C[C@@H]4C(C)(C)CC[C@H](OC(=O)CCCCC)[C@@]4(C)[C@@H]2CC[C@@H]1[C@H]3O
IC50 [1]: 5.6 µM
IC50 [2]: 4 µM

COc1cc([C@@H]2c3cc4c(cc3[C@@H](O[C@@H]3O[C@@H]5CO[C@@H](C)O[C@H]5[C@H](O)[C@H]3O)[C@H]3COC(=O)[C@H]23)OCO4)cc(OC)c1O [ETOPOSIDE]
IC50 [1]: 12 µM
IC50 [2]: 23 µM

C=C1C(=O)[C@@]23[C@H](O)C[C@@H]4C(C)(C)CC[C@H](O)[C@@]4(C)[C@@H]2CC[C@@H]1[C@H]3O [KAMEBANIN]
IC50 [1]: 3.3 µM
IC50 [2]: 12 µM
